Experimental data from patent publication US20260137773A1 (priority 2022, published 2026).

Columns and labels:
[1] = tested on: 4T1 mouse mammary gland carcinoma; format: in vivo; conditions: data not shown
[2] = healthy volunteers; cited from earlier work
complement activation = conditions: higher than Factor H; cited from earlier work

Versikine
tumor size, Versikine assessed alone [1]: did not significantly reduced tumor size

CC[C@H](C(=O)N1CCCC[C@H]1C(=O)O[C@H](CCc1ccc(OC)c(OC)c1)c1cccc(OCC(=O)NCCNC(=O)COc2cccc([C@@H](CCc3ccc(OC)c(OC)c3)OC(=O)[C@@H]3CCCCN3C(=O)[C@@H](CC)c3cc(OC)c(OC)c(OC)c3)c2)c1)c1cc(OC)c(OC)c(OC)c1 [AP1903]
safety [2]: proven safe

B1: miniFH (protein)
chain: EDCNELPPRRNTEILTGSWSDQTYPEGTQAIYKCRPGYRSLGNVIMVCRKGEWVALNPLRKCQKRPCGHPGDTPFGTFTLTGGNVFEYGVKAVYTCNEGYQLLGEINYRECDTDGWTNDIPICEVVKCLPVTAPENGKIVSSAMEPDREYHFGQAVRFVCNSGYKIEGDEEMHCSDDGFWSKEKPKCVEISCKSPDVINGSPISQKIIYKENERFQYKCNMGYEYSERGDAVCTESGWRPLPSCEEKSCDNPYIPNGDYSPLRIKHRTGDEITYQCRNGFYPATRGNTAKCTSTGWIPAPRCTSGSGGGGVDTTSCVNPPTVQNAYIVSRQMSKYPSGERVRYQCRSPYEMFGDEEVMCLNGNWTEPPQCKDSTGKCGPPPPIDNGDITSFPLSVYAPASSVEYQCQNLYQLEGNKRITCRNGQWSEPPKCLHPCVISREIMENYNIALRWTAKQKLYSRTGESVEFVCKRGYRLSSRSHTLRTTCWDGKLEYPTCAKR
modifications: REGION 1..499: note = miniFH POLYPEPTIDE
ex vivo potency to inhibit complement activation compared with FH (complement activation): ~10 fold
